Source: patent US20150141523A1, “COMPOUNDS FOR USE IN THE TREATMENT OF AUTOIMMUNE INFLAMMATORY DISEASE” (Venantius Limited, priority 2012, published 2015)
Where two headings read alike, the source gives them in different places.

Key:
Balb/C mice = test: Oxazolone contact hypersensitivity (CHS) mouse ear swelling; type: in vivo; conditions: 15 mg/kg; vehicle 107%
Method: Female Balb/C mice (30-40 gms) were sensitised on day 0 with 20 μl of 2% oxazolone in acetone on each ear (10 μl on the inner and outer aspects of both ears). All mice were challenged on day 5 with 20 μl of 2% oxazolone in acetone only on the right ear; again, 10 μl on both the inner and outer aspects of the ear. Immediately following this, the mice were treated with test compound. The test compound was administered in exactly the same way as the oxazolone, with 10 μl on each side of the right ear. […] For the […] group, acetone was administered. All animals were killed 24 hrs later and the percentage increase in ear swelling was calculated. This was done in two ways. The thickness of the unchallenged left ear and the challenged right ear were measured using a micrometer caliper (μm). The increase in weight of both ears was also measured using a 5 mm biopsy punch (mgs). The percentage increase in oedema was then calculated for both weight and thickness by expressing the difference between the unchallenged left ear and the challenged right ear as a percentage of the left ear control.

[1] = system: IL-2 secretion from Jurkat T cells; test: IL-2 secretion from activated Jurkat T cells (ELISA); type: cell-based, human; conditions: for IL-2 [ ]pg/ml (1) / IL-2 % Control (1): experiment (1); for IL-2 % Control (1) / IL-2 % Control (2) / IL-2 % Control (3): relative to DMSO 0.1%; for IL-2 [ ]pg/ml (2) / IL-2 % Control (2): experiment (2); for IL-2 [ ]pg/ml (3) / IL-2 % Control (3): experiment (3)
Method: The T cell line Jurkat 6.1 (ATCC) was used. Cells were pre-treated for 30 min with 1 μM or 10 μM of the respective compound and then stimulated with plate-bound anti-CD3 (BD Pharmingen) and anti-CD28 (AnCell). DMSO was used as vehicle control. The immunosuppressive agent Cyclosporine A was used as a control for inhibition of IL-2 production. After 24 hs the supernatant was collected and IL-2 secretion was measured by ELISA.
Jurkat T cells were cultured in RMPI-1640 medium containing 10 % Foetal Bovine Serum, Penicillin/Streptomycin and L-Glutamine in T-75cm2 flasks at 37° C. and 5 % CO2. Cells were seeded into new culture flasks at a density of 1-3×10^5 cells per ml and maintained at a density of 0.5−1×10^6 cells per ml.
(§1) (A) Anti-TCR/CD28-mediated activation of Jurkat cells: Experiments involving anti-TCR/CD28-mediated activation of Jurkat T lymphocytes were carried out on 24-well cell culture plates. The plates were coated with a 1/100 dilution of rabbit anti-mouse IgG in sterile PBS (1×) and incubated overnight at 4OC. Unbound antibody was aspirated and the wells were gently rinsed with warm sterile PBS. The PBS was aspirated and the wells were coated with a 1/100 dilution of anti-TCR antibody (OKT-3) and a 1/200 dilution of anti-CD28 antibody (both antibodies pre-mixed prior to addition to the plates) in sterile PBS. The plates were then incubated for 1-2 hours at 37° C. Unbound antibody was aspirated and the wells were gently rinsed with warm PBS. The PBS was left on the plate until the Jurkat cells were ready to be added to the plate. The Jurkat cells were harvested from the T-75cm2 cell culture flasks and resuspended at a density of 0.5×10^6 cells per ml. The compounds were dissolved at a specified stock concentration (see results section) and diluted to the required concentration by adding the drug to the cell suspension. The cells were then pre-incubated with the compounds or with an equivalent volume of drug vehicle control (DMSO) for 30 minutes prior to adding the cell suspension to the antibody-coated plates. Cyclosporine A (1 μM) was used as a positive control to inhibit IL-2 production from activated T cells and was preincubated with the 6 cells as described above in parallel. The cells were then incubated on the plates with the acti-TCR/CD28 antibodies for 24 hours at 37° C. and 5% CO2 in a humidified atmosphere. After 24 hours, the cell suspension was removed from the plates and the cells were pelleted by centrifugation. The cell culture supernatant was saved and analysed for secreted IL-2 by ELISA. The cell pellet was saved and cell viability was measured using Acridine Orange/Ethidium Bromide cell viability staining solution.
(B) PHA/PMA-mediated activation of Jurkat cells Jurkat cells were resuspended at a concentration of 0.5×10^6 cells per ml and the Pharmatrin compounds at the desired concentration or an equivalent volume of drug vehicle control (DMSO) were added to the cells and incubated for 30 minutes. Cyclosporine A (1 ∝M) was used as a positive control to inhibit IL-2 production from activated T cells and was preincubated with the cells as described above in parallel. PHA and PMA were added to the cell suspension (10 ∝g/ml and 10 ng/ml respectively) and the cells were plated onto uncoated 24-well plates. The cells were incubated on the plates for 24 hours at 37° C. and 5 % CO2 in a humidified atmosphere. After 24 hours, the cell suspension was removed from the plates and the cells were pelleted by centrifugation. The cell culture supernatant was saved and analysed for secreted IL-2 by ELISA.
The cell culture supernatants were analysed for IL-2 by ELISA (96-well plate format) using the Human IL-2 ELISA kit from R&D Systems Europe. This assay was carried out using the standard protocol outlined by the company. Samples and standards (recombinant human IL-2 provided by R&D Systems) were analysed in triplicate. […]

Jurkat cells = test: Jurkat cell viability (Acridine Orange/Ethidium Bromide); type: cell-based
Method: as §1
The cell pellet was resuspended in 20 μl of Acridine Orange/Ethidium Bromide staining solution. A portion of this cell suspension was placed on a haemocytometer and analysed under a fluorescence microscope. […] The ratio of viable cells: non-viable cells were calculated for each activation time point/drug treatment.

BalbC mice = test: Arachidonic acid mouse ear oedema model; type: in vivo; conditions: 300 μg/ear in acetone, topical; arachidonic acid alone 86%
Method: The arrachidonic mouse ear oedema model is an acute inflammation model based on activation of ecosanoid pathways. The mouse ear oedema model was performed using BalbC mice (25-35 g), of either sex. The ear was treated by the topical application (10 μl) of solvent (acetone 100%) or test drug (300 μg/ear in acetone) or Indomethacin (300 μg/ear in acetone). After one hour, oedema was induced by the topical application of arachidonic acid (10 μl at 0.4 g/ml in acetone). The width of each ear was measured, both before and 60 min after the induction of oedema, using a micrometer screw gauge. Ear oedema was calculated by comparing the ear width before and after induction of oedema and expressed as percentage normal. Animals were killed using CO2, without recovering from sedation.

[2] = system: β-hexosaminidase release from RBL-2H3 cells; conditions: cited from earlier work
[3] = RBL-2H3 cells, Inflamm. Res. 57 (2008)

Q: For `C[C@@H]1C[C@H]2[C@@H]3CCC4=CC(=O)C=C[C@]4(C)[C@@]3(F)[C@@H](O)C[C@]2(C)[C@@]1(O)C(=O)CO` [dexamethasone, reference compound], which “increase in ear punch weight” value (Balb/C mice) is on record?
A: 42%

Q: For “(R,S or SR)2-Benzyl-2,3-dihydro-1H,1′H-2,2′-biinden-1-ol [Compound 8]”, which “IL2 release from Jurkat cells” value [1] is on record?
A: inhibited IL2 release

Q: And the “IL-2 [ ]pg/ml (1)” value ([1]; 0.3 uM)?
A: 44.20 pg/mL

Q: And the “IL-2 % Control (1)” value ([1]; 0.3 uM)?
A: 216.67%

Q: And the “IL-2 [ ]pg/ml (2)” value ([1]; 0.3 uM)?
A: 50.10 pg/mL

Q: And the “IL-2 % Control (2)” value ([1]; 0.3 uM)?
A: 245.59%

Q: What about the “IL-2 [ ]pg/ml (3)” value ([1]; 0.3 uM) of the same molecule?
A: 107.03 pg/mL

Q: And the “IL-2 % Control (3)” value ([1]; 0.3 uM)?
A: 77.39%

Q: And the “IL-2 [ ]pg/ml (1)” value ([1]; 1 uM)?
A: 37.95 pg/mL

Q: And the “IL-2 % Control (1)” value ([1]; 1 uM)?
A: 186.03%

Q: What about the “IL-2 [ ]pg/ml (2)” value ([1]; 1 uM) of the same molecule?
A: 39.65 pg/mL

Q: What about the “IL-2 % Control (2)” value ([1]; 1 uM) of the same molecule?
A: 194.36%

Q: And the “IL-2 [ ]pg/ml (3)” value ([1]; 1 uM)?
A: 111.75 pg/mL

Q: And the “IL-2 % Control (3)” value ([1]; 1 uM)?
A: 80.81%

Q: What about the “IL-2 [ ]pg/ml (1)” value ([1]; 3 uM) of the same molecule?
A: 34.45 pg/mL

Q: What about the “IL-2 % Control (1)” value ([1]; 3 uM) of the same molecule?
A: 168.87%

Q: And the “IL-2 [ ]pg/ml (2)” value ([1]; 3 uM)?
A: 36.00 pg/mL

Q: And the “IL-2 % Control (2)” value ([1]; 3 uM)?
A: 176.47%

Q: And the “IL-2 [ ]pg/ml (3)” value ([1]; 3 uM)?
A: 102.92 pg/mL

Q: And the “IL-2 % Control (3)” value ([1]; 3 uM)?
A: 74.42%

Q: And the “IL-2 [ ]pg/ml (1)” value ([1]; 10 uM)?
A: 20.15 pg/mL

Q: What about the “IL-2 % Control (1)” value ([1]; 10 uM) of the same molecule?
A: 98.77%

Q: What about the “IL-2 [ ]pg/ml (2)” value ([1]; 10 uM) of the same molecule?
A: 25.65 pg/mL

Q: And the “IL-2 % Control (2)” value ([1]; 10 uM)?
A: 125.74%

Q: And the “IL-2 [ ]pg/ml (3)” value ([1]; 10 uM)?
A: 81.78 pg/mL

Q: And the “IL-2 % Control (3)” value ([1]; 10 uM)?
A: 59.13%

Q: And the “IL-2 [ ]pg/ml (1)” value ([1]; 30 uM)?
A: -2.80 pg/mL

Q: And the “IL-2 % Control (1)” value ([1]; 30 uM)?
A: −13.73%

Q: What about the “IL-2 [ ]pg/ml (2)” value ([1]; 30 uM) of the same molecule?
A: -3.00 pg/mL

Q: What about the “IL-2 % Control (2)” value ([1]; 30 uM) of the same molecule?
A: −14.71%

Q: And the “IL-2 [ ]pg/ml (3)” value ([1]; 30 uM)?
A: 76.25 pg/mL

Q: What about the “IL-2 % Control (3)” value ([1]; 30 uM) of the same molecule?
A: 55.14%

Q: What about the “IL-2 [ ]pg/ml (1)” value ([1]; 100 uM) of the same molecule?
A: -12.55 pg/mL

Q: What about the “IL-2 % Control (1)” value ([1]; 100 uM) of the same molecule?
A: −61.52%

Q: And the “IL-2 [ ]pg/ml (2)” value ([1]; 100 uM)?
A: -12.80 pg/mL

Q: And the “IL-2 % Control (2)” value ([1]; 100 uM)?
A: −62.75%

Q: And the “IL-2 [ ]pg/ml (3)” value ([1]; 100 uM)?
A: 8.11 pg/mL

Q: And the “IL-2 % Control (3)” value ([1]; 100 uM)?
A: 5.87%

Q: What about the cell viability (Jurkat cells) of the same molecule?
A: without affecting cell viability

Q: With `COc1ccc2c(c1)c(CC(=O)O)c(C)n2C(=O)c1ccc(Cl)cc1` [Indomethacin, reference compound] as the molecule, how does the “ear swelling (increase in ear thickness)” value (BalbC mice) read?
A: 40%

Q: With “(S,S and RR)2-Benzyl-2,3-dihydro-1H,1′H-2,2′-biinden-1-ol [Compound 6]” as the molecule, how does the “inhibition of β-hexosaminidase release” value ([2]; RBL-2H3 cells stimulated by calcium ionophore A23187, Bioorg. Med. Chem. Lett. 19(20), 2009) read?
A: dose-dependant inhibition

Q: What about the “inhibition of β-hexosaminidase release” value [2, 3] of the same molecule?
A: dose dependent inhibition

Q: Which “inhibition of β-hexosaminidase release” value [2, 3] does the source give for `O[C@@H]1c2ccccc2C[C@]1(Cc1ccccc1)C1=Cc2ccccc2C1` (racemic) [Compound 5, (R,S and SR)2-Benzyl-2,3-dihydro-1H,1′H-2,2′-biinden-1-ol] here?
A: dose dependent inhibition
